Experimental data published in patent US4201784A, “Substituted 2-[2'-(5"-nitrofuryl-2")vinyl-and 4'-(5"-nitrofuryl-2"-1,3-butadieryl]quinoline-4-carboxylic acid amides and salts thereof” (Institut Organicheskogo Sinteza Akademii Nauk Latviiskoi SSR, priority 1977, dated 1980).

Key:
[1] = system: Ehrlich ascitic tumor; test: Antitumor activity, life prolongation of mice with Ehrlich ascitic tumor; assay type: in vivo
Procedure: The experiment was conducted as follows. 10^6 cells of Erlich tumuor were injected in common white mice intraperitoneally, the dose being given per each animal. […] Each dose of the preparation was tested in six mice. The control group included 18 mice. Giniquine solution was prepared by dissolving the substance ex tempore in distilled water or in a buffer. The effect of the preparation is shown on charts 1,2,3.

[2] = system: sarcoma 37; test: Antitumor activity, life prolongation, sarcoma 37; assay type: in vivo, mice
Procedure: (§1) Apart from the tests on Ehrlich ascitic tumor, giniquine was studied on twelve more inoculated tumors. Seven tumors (melanoma B16, sarcoma AK, large intestine carcinoma acatol-1, sarcoma 180, adenocarcinoma 755, Lewis lung carcinoma and sarcoma 37) were inoculated subcutaneously with 50 mg of tumoral cells per mouse. Four tumors (lymphatic leukemies L 5178, L 5178Y, L 1210 and P-388) were inoculated intraperitoneally with 10^6 cells per mouse. One tumor (La, hemocytoblastosis) was inoculated intraperitoneally by injecting 50 mg of cell suspension of spleen and liver of mice suffering La hemocytoblastosis, per mouse. Giniquine was injected intraperitoneally five times for seven days: 1,2,3,4,7 days or 3,4,5,6,7 days after the implantation of tumor. The rate of deceleration of the tumor growth was established 14 days after the ultimate injection of giniquine; life of test animals was recorded for 60 days.

[3] = system: La hemocytoblastosis; test: Antitumor activity, La hemocytoblastosis; assay type: in vivo, mice
Procedure: as §1

[4] = LD50 / toxicity, mice with 7-days Ehrlich ascitic tumor; assay type: in vivo; settings: for LD50: mouse, in vivo
Excerpt: It should be noted that with a single intraperitoneal injection of the
With peroral administration, toxicity of giniquine is 4-5 times lower.

[5] = Biological availability, ascites of mice with Ehrlich ascitic carcinoma; assay type: in vivo
Procedure: The biological availability of giniquine was studied on common white male rats with a mass of 150-200 g and common white male mice with a mass of 25-30 g. The test began seven days after Ehrlich ascitic carcinoma was inoculated to the animals.
Giniquine was injected intraperitoneally in 100 mg/kg doses, using distilled water as a solvent. The animals were slaughtered at preset time intervals (5,15,30 and 60 minutes) and a biological material (blood and liver for rats and ascites for mice) was taken for analysis. To separate ascitic fluid from the tumor cells, ascites was centrifuged at 2000 r.p.m. for 10 minutes. The precipitate was washed with a mixture of physiological solution and heparin and was again centrifuged under the same conditions, 20% homogenates in distilled water were prepared from ascitic cells.
Giniquine was extracted from the biological material with chloroform.
The extraction procedure comprised the following stages: 0.1 ml of ethyl alcohol were added to 1 ml of tested sample and the solution was thoroughly mixed with 0.5 ml of a saturated potassium carbonate solution, then 4 ml of chloroform was added. Closed test tubes were vigorously shaken on a rocker for one hour. After the shaking, the samples were centrifuged at 5000 r.p.m. for ten minutes. The chloroform layer was used for analysis. Daylight was avoided.
Concentration of the preparation in biological samples was determined by spectrophotometry at 400 nm using molar absorption factor (ε0.10^-3 =36.04).
The results were expressed in μg/ml of sample. Minimum sensitivity of the method was 1.1 μg/ml.

[6] = system: Mucous membrane of small intestine; test: In vivo biosynthesis of DNA, RNA and protein in mucous membrane of small intestine; set-up: species or system mice; settings: 24 hours, intraperitoneal 28 mg/kg
Procedure: (§2) The influence of giniquine on biosynthetic processes in the in vivo tests was studied on common white mice of a mass of 25-35 g with Ehrlich ascitic tumor.
(§3) The mice were divided into two groups. The animals in the first group were given a single injection of the preparation in differing doses, and the animals in the second group were treated with distilled water. Three series of experiments were conducted. In the first series of tests (16 mice) the preparation was injected in a dose of 100 mg/kg ([…] dose), and the animals were decapitated one hour after the injection; in the second test series (16 mice) the animals were slaughtered 3 hours after the injection with other conditions being the same. In the third test series (35 mice) the influence of giniquine on plastic metabolism in tumor cells and normal tissues was studied 24 hours after the injection of a 0.33% solution of the preparation in a dose of 28 mg/kg (therapeutical dose).
(§4) Labeled precursors of nucleic acids and protein were injected intraperitoneally one hour before the slaughter of the animals (50 μc/100 g). Ascitic fluid, as well as liver and spleen, mucous membrane of small intestine, brain, kidneys and lungs were taken for analysis. 10% suspension was prepared from tumor cells, and 10% homogenates were prepared from tissues in a physiological solution.
(§5) Tumor cells and tissue homogenates for precipitation of nucleic acids were treated with 57% perchloric acid (10:1). […] Radioactivity of DNA and RNA fractions was measured by means of a liquid scintillation counter. The quantity of DNA and RNA was determined by spectrophotometry: the quantity of DNA was determined with diphenylamine, and RNA- with orcin.
(§6) To prepare protein hydrolysate, the suspension of tumoral cells and homogenates of normal tissues were treated with cool 10% trichloracetic acid (1:4), with subsequent centrifuging at 2000 g for ten minutes. […] The radioactivity was measured by means of a liquid scintillation counter. Protein was quantitatively determined by spectrophotometry using a microbiuret reaction.

[7] = system: Brain; test: In vivo biosynthesis of DNA, RNA and protein in brain; set-up: species or system mice; settings: 24 hours, intraperitoneal 28 mg/kg
Procedure: as §2, §3, §4, §5, §6

[8] = system: Lungs; test: In vivo biosynthesis of DNA, RNA and protein in lungs; set-up: species or system mice; settings: 24 hours, intraperitoneal 28 mg/kg
Procedure: as §2, §3, §4, §5, §6

[9] = system: wound healing processes; test: Influence on wound healing processes
[10] = system: tumor cells; test: Antiblastic activity and selectivity of action on tumor cells (general statement)

## CCN(CC)CCCC(C)NC(=O)c1cc(C=Cc2ccc([N+](=O)[O-])o2)nc2ccccc12 (stereo not drawn) [giniquine, 2-[2'-(5"-nitrofuryl-2")vinyl]quinoline-4-carboxylic acid (α-methyl-δ-diethylaminobutyl)amide triphosphate]
[1]; 0.1 to 0.35% solution
  dependence of antitumoral effect on solution concentration: did not change within this range of concentrations
[1]; Chart 1, intraperitoneal injection
  prolongation of life: 100%
[1]; Chart 1, intravenous injection
  prolongation of life: 25%
[1]; Chart 2, single intraperitoneal injection on first day vs five injections at 1,2,3,4,7 days
  antitumor effect, single versus five injections: the same
[1]; Chart 3, intraperitoneal injection on 7th day
  prolongation of life: 100%
[1]; Chart 3, intraperitoneal injection on 14th day
  prolongation of life: 55%
[1]; Chart 3, intraperitoneal injection on first day after implantation
  prolongation of life: 90%
[1]; Chart 3, intraperitoneal injection on third day
  prolongation of life: 80%
[2]; common female mice, intraperitoneal, days 1,2,3,4,7, daily doses 6.0-28.0 mg/kg, optimum daily dose 0
  Max. life prolong.: 0%
[2]; sarcoma 37
  antiblastic activity / sensitivity (in words): practically insensitive
[3]; C57 BL/6Y female mice, intraperitoneal, days 1,2,3,4,7, optimum daily dose 10.0 mg/kg
  Max. life prolong.: 5%
[3]; La hemocytoblastosis
  antitumor effect / sensitivity (in words): practically insensitive
[4]; Table 4
  dependence of mice sensitivity on sex: does not depend on the sex of test mice
[4]; ip, intraperitoneal, single injection, female
  LD50: 99 mg/kg
[4]; po, peroral, single administration, female
  LD50: 360 mg/kg
[4]; po, peroral, single administration, male
  LD50: 500 mg/kg
[4]; peroral administration
  toxicity, times lower: 4-5 times lower
[4]; single intraperitoneal injection, 7 days after implantation of Ehrlich ascitic tumor
  toxicity, relative: three times lower
[5]; 60 minutes
  concentration in tumoral cells versus ascitic fluid (in words): also greater than that in ascitic fluid
[5]; intraperitoneal 100 mg/kg
  time of maximum concentration in ascitic cells: five minutes
[5]; intraperitoneal 100 mg/kg, five minutes
  concentration in ascitic cells versus ascitic fluid: four times greater
[5]; intraperitoneal injection
  accumulation (in words): mainly accumulates in ascitic cells
[5]; mouse, ascitic cells, ip, intraperitoneal 100 mg/kg, five minutes, read-out: maximum concentration in ascitic cells
  Cmax at 5 min: 40000 ng/mL
[5]; mouse, ascitic fluid, ip, intraperitoneal 100 mg/kg, five minutes
  concentration at 5 min: 10000 ng/mL
[6]
  Incorporation of specific precursors, DNA: 386.0 % of control
  Incorporation of specific precursors, Protein: 122.0 % of control
  Incorporation of specific precursors, RNA: 158.0 % of control
[7]
  Incorporation of specific precursors, DNA: 125.0 % of control
  Incorporation of specific precursors, Protein: 105.0 % of control
  Incorporation of specific precursors, RNA: 124.0 % of control
[8]
  Incorporation of specific precursors, DNA: 255.0 % of control
  Incorporation of specific precursors, Protein: 102.0 % of control
  Incorporation of specific precursors, RNA: 124.0 % of control
[9]
  inhibiting influence on wound healing processes: absence of an inhibiting influences on wound healing processes
[10]
  antiblastic / antitumoral activity: highly active antitumoral preparation
  selective (contact) action on tumor cells: selective action on tumor cells
